“Also recorded” adds a separate entry of the source.
Experiments:
zebrafish embryos [1] = assay: Embryo analysis at 72 hpf (blood circulation and ISVs development); format: in vivo; settings: 72 hpf
Experimental: Embryos from the Flk1:copGFP line were treated with the indicated compounds at 22–23 hpf in 500 µl of E3 in p24 well plates (5 embryos per well). After 48 hours of treatment embryos were anesthetized with 10 µl Tricaine (final concentration 0.02%) and analyzed for the presence of blood circulation and ISVs development using a Leica M205 FA stereoscope equipped with a Hamamatsu C10600 camera.

zebrafish embryos [2] = assay: Automated angiogenesis assay (ISV formation), Flk1:copGFP embryos treated at 22-26 hpf, read at 48 hpf; format: in vivo; settings: for Angiog. inhibition: presence or absence of an anti-angiogenic effect, 0.01-100 µM; for Anti-angiogenic phenotype (ISVs / DLAV): treated at 24 hpf, checked at 48 hpf
From the text: In the angiogenesis assay, the fluorescent images taken were processed using AxioVision 4.6.3 and a macro was developed to quantify an indirect measure of the area of the ISVs. […] However, we usually include a manual counting to offer a more detailed measurement of effect.
In the automatic analysis of angiogenesis, it is first necessary to perform a sequence of automated filtering functions on the image to extract information, define the region of interest (ROI), that in this case is the part of the tail containing the ISVs, and allow the measurement of the embryo length. Recovering a previous image, new filtering functions are applied to the ROI. A gradient image containing the ISVs, the DLAV (Dorsal Longitudinal Anastomotic Vessel), the PCV and the DA is created. Next, fluorescent areas that should not be quantified are discarded. Finally, only the areas comprised between the ISVs, the DLAV and the PCV or the DA are measured (Figure 4). In that way, when the vessels are incomplete or the DLAV is not present, an enclosed area is not present and therefore not measured.
The means obtained from the treated embryos were compared with the control mean. When statistically significant differences were detected a deeper analysis was done manually. In this case the parameters quantified were:
• The total number of ISVs present in the trunk of the embryos (from where the largest bulge of the yolk ends to the end of the tail). • Number of complete ISVs (reached the dorsal part of the embryo and formed the DLAV).
A curve of six concentrations (0.01, 0.1, 1, 10, 30 and 100 µM) was performed for all of them. […] IC50 was calculated when a clear dose-dependent anti-angiogenesis effect was detected. Otherwise, the minimum dose at which the inhibition of angiogenesis was observed is shown (Table 4).
At this time, chorions were removed with protease from Streptomyces griseus (Sigma-Aldrich) (1.5 mg/ml for 6 minutes) and the embryos were sorted and dispensed 1 per well in a 96 well assay plate. Each experimental condition was tested in a row with ten embryos. Embryos were dispensed in an average final volume of 90 µl of E3 media. 90 µl of the test items (DMSO and positive control KRN633 included) previously diluted 100 times were dispensed into each well of the assay plate containing the embryos to get the final volume of 180 µl and the desired final concentration.
The microscope scanned the wells by columns and a bright field image and a fluorescent image (2.5×magnification) were acquired per well. Then, the image analysis was performed and the result file generated.
Statistical analysis and graphical representation of the data were performed using SSPS (Statistical Package for the Social Sciences) software and Prism (Graph Pad Software) for IC50 calculations (non linear regression, sigmoidal dose-response with variable slope). […] In the angiogenesis assay, for comparisons between two groups, two-tailed t-test was used assuming unequal variances. For comparisons between more than two groups one-way analysis of variance followed by Dunnett’s post-test was applied to compare each data point with vehicle control.

[3] = Dilution of compound in E3 medium; format: physicochemical

| Behaviour after dilution in E3 medium [3] | SMILES | Blood circulation (zebrafish embryos [1]) | ISVs appearance (zebrafish embryos [1]) | Efective concentration (minimum concentration that showed an effect) (zebrafish embryos [2]; given when IC50 could not be calculated) | Angiog. inhibition (zebrafish embryos [2]) | Anti-angiogenic phenotype (ISVs / DLAV) (zebrafish embryos [2]) | Inhibition of angiogenesis at maximum dose tested in medium (zebrafish embryos [2]; 10 µM in E3 medium) |
| --- | --- | --- | --- | --- | --- | --- | --- |
| – | CCN(CC)CCCCNc1ncc2cc(-c3cc(OC)cc(OC)c3)c(NC(=O)NC(C)(C)C)nc2n1 [PD173074] | impaired blood circulation | thinner ISVs that were disrupted in some cases | 100 µM | Yes | moderate effect that did not increase with higher doses; also recorded: inhibit proper development of the DLAV; also recorded: thinner ISVs rather than incomplete vessel formation | – |
| precipitated | CC(=O)O[C@H]1C(=O)[C@@]2(C)[C@H]([C@H](OC(=O)c3ccccc3)[C@]3(O)C[C@H](OC(=O)[C@H](O)[C@@H](NC(=O)c4ccccc4)c4ccccc4)C(C)=C1C3(C)C)[C@]1(OC(C)=O)CO[C@@H]1C[C@@H]2O [Paclitaxel] | – | – | – | Yes | the formation of ISVs was perturbed with defective or total absence of sprouting | not enough to induce inhibition of angiogenesis |

Reference: paper PMC3352927, “Development and Validation of an Automated High-Throughput System for Zebrafish In Vivo Screenings” (PLoS ONE, 2012)
